From article PMC8155176, “Reversible modulation of circadian time with chronophotopharmacology” (Nature Communications, 2021)

Key:
SCN explants = assay: Ex vivo circadian period, SCN explants of Per2::Luc knock-in mice; set-up: species or system mouse; conditions: 18 µM
Description: Next, we applied the light-dependent period control to the tissue level using explants of Per2::Luc knock-in reporter mice. The mice express PER2-luciferase fusion protein under control of the endogenous Per2 promoter. […] The spleen explants were treated with thermally adapted trans-9, then irradiated with green light (λmax = 530 nm) or kept in dark, and luminescence rhythms were measured (Fig. 6a, b). […] In addition to the peripheral clock in spleen, we investigated the effect of compound 9 on the central clock in the hypothalamic suprachiasmatic nucleus (SCN) that controls behavioral rhythms. […]
(§1) Fig. 6 Ex vivo photo-modulation of the circadian period in mouse tissue explants. a–c The spleen explants of the Per2::Luc knock-in reporter mice were applied with 12 µM compound 9 and irradiated with green light (λmax = 530 nm) for 0 min (dark, black) or 30 min (green). Luminescence rhythms were then monitored and shown in a (mean of n = 5 for dark and n = 6 for green light). […] Luminescence is given in arbitrary units. n = 5 biologically independent samples for dark and n = 6 for green light. […] Luminescence rhythms of a representative sample for each condition are shown in d. […]
To harvest the suprachiasmatic nucleus (SCN), Per2::Luc heterozygote neonatal mice at postnatal day four to seven were euthanized. […] Circadian period was calculated by a cosine curve fitting. […]

spleen explants = assay: Ex vivo circadian period, spleen explants of Per2::Luc knock-in mice; set-up: species or system mouse; conditions: 12 µM
Description: Next, we applied the light-dependent period control to the tissue level using explants of Per2::Luc knock-in reporter mice. The mice express PER2-luciferase fusion protein under control of the endogenous Per2 promoter. […] The spleen explants were treated with thermally adapted trans-9, then irradiated with green light (λmax = 530 nm) or kept in dark, and luminescence rhythms were measured (Fig. 6a, b). […] In addition to the peripheral clock in spleen, we investigated the effect of compound 9 on the central clock in the hypothalamic suprachiasmatic nucleus (SCN) that controls behavioral rhythms. […] Together, compound 9 enabled light-dependent inducible control of the circadian period at both cellular and tissue levels.
as §1, with “light). Baseline-subtracted data are shown in b. Period changes compared to a DMSO control are plotted in c.” for “light).”

CC(C)n1cnc2c(NCc3ccc(F)c(/N=N/c4c(F)cccc4F)c3F)ncnc21 [Compound 9]
period effect of thermally adapted compound (SCN explants; applied on day 4): induced period lengthening
period effect upon green light irradiation (SCN explants; green light on day 8): reduced
period effect after green light irradiation (spleen explants; 530 nm 30 min): suppressed the period-lengthening effect
period effect vs DMSO control, dark (spleen explants; dark): period lengthening
